# Reference: Sander's compilation of Henry's law constants
# Assay: Henry solubility constant Hcp at 298.15 K (mol/(m3 Pa))
# [1] = reference: Dohnal and Fenclová (1995)
# [2] = reference: Feigenbrugel et al. (2004b)
# [3] = reference: Heidman et al. (1985)
# [4] = reference: Jönsson et al. (1982)
# [5] = reference: Dohányosová et al. (2004)
# [6] = reference: Cetin and Odabasi (2005)
# [7] = reference: Kawamoto and Urano (1989)
# [8] = reference: Murphy et al. (1983a)
# [9] = reference: Warner et al. (1980)
# [10] = reference: Christie and Crisp (1967)
# [11] = reference: Perlinger et al. (1993)
# [12] = reference: Charles and Destaillats (2005)
# [13] = reference: Ondo and Dohnal (2007)
smiles,measurement,setting,value
Cc1cccc(O)c1 [1-hydroxy-3-methylbenzene],Henry solubility constant Hcp,[1],12
same,Henry solubility constant Hcp,[2],7.9
"CC(F)(F)Cl [1-chloro-1,1-difluoroethane]",Henry solubility constant Hcp,reference: Chang and Criddle (1995),0.00015
same,Henry solubility constant Hcp,reference: Kutsuna (2013),0.00015
same,Henry solubility constant Hcp,reference: Maaßen (1995),0.00014
same,Henry solubility constant Hcp,reference: Reichl (1995),0.00014
CC(=O)CCC=C(C)C [6-methyl-5-hepten-2-one],Henry solubility constant Hcp,reference: Wu et al. (2022b),0.12
"CCC(=O)C(C)=O [2,3-pentanedione]",Henry solubility constant Hcp,reference: Wu et al. (2022b),0.13
CCCCCCCC [octane],Henry solubility constant Hcp,[3],3.1e-06
same,Henry solubility constant Hcp,[4],2.9e-06
same,Henry solubility constant Hcp,reference: Park et al. (1997),3.3e-06
CCCCC/C=C/C=O [(E)-2-octenal],Henry solubility constant Hcp,reference: Buttery et al. (1971),0.13
"FC(F)(F)C(F)(F)C(Cl)Cl [3,3-dichloro-1,1,1,2,2-pentafluoropropane]",Henry solubility constant Hcp,reference: Kutsuna (2013),9.8e-05
CS [methanethiol],Henry solubility constant Hcp,reference: De Bruyn et al. (1995b),0.002
same,Henry solubility constant Hcp,reference: Hine and Weimar (1965),0.0033
"OCCC(F)(F)C(F)(F)C(F)(F)C(F)(F)C(F)(F)C(F)(F)C(F)(F)C(F)(F)F [1H,1H,2H,2H-perfluorodecan-1-ol]",Henry solubility constant Hcp,reference: Lei et al. (2004),0.00017
same,Henry solubility constant Hcp,reference: Wu and Chang (2011),0.0002
O=C(O)C(F)(F)C(F)(F)C(F)(F)F [perfluorobutanoic acid],Henry solubility constant Hcp,reference: Kwan (2001),0.81
C1CCCCCCC1 [cyclooctane],Henry solubility constant Hcp,[5],6.9e-05
COC(=O)c1ccccc1O [2-hydroxybenzoic acid methyl ester],Henry solubility constant Hcp,reference: Karl et al. (2008),0.33
"Cc1ccc(N)cc1C [3,4-dimethylbenzenamine]",Henry solubility constant Hcp,reference: Jayasinghe et al. (1992),5.3
"Brc1cc(Br)c(Oc2cc(Br)c(Br)cc2Br)c(Br)c1 [2,2',4,4',5,6'-hexabromodiphenyl ether]",Henry solubility constant Hcp,[6],7.3
same,Henry solubility constant Hcp,reference: Long et al. (2017),7.1
"Brc1cc(Br)c(Br)cc1Br [1,2,4,5-tetrabromobenzene]",Henry solubility constant Hcp,reference: Kuramochi et al. (2004),0.0027
O=C(O)C(F)(F)C(F)(F)C(F)(F)C(F)(F)C(F)(F)F [perfluorohexanoic acid],Henry solubility constant Hcp,reference: Kwan (2001),1.1
CCC1CCCCC1 [ethylcyclohexane],Henry solubility constant Hcp,[5],2e-05
same,Henry solubility constant Hcp,[3],3.1e-05
CCC(C)N (stereo not drawn) [2-butanamine],Henry solubility constant Hcp,reference: Kish et al. (2013),0.4
"O=[N+]([O-])c1ccc(Oc2c(Cl)cc(Cl)cc2Cl)cc1 [2,4,6-trichlorophenyl 4-nitrophenyl ether]",Henry solubility constant Hcp,[7],> 8.1
O=C(O)c1ccccc1 [benzenecarboxylic acid],Henry solubility constant Hcp,reference: Li et al. (2007),290
O=S(=O)(F)F [sulfuryl fluoride],Henry solubility constant Hcp,reference: Cady and Misra (1974),8.9e-05
"Clc1ccc(Cl)c(-c2ccccc2Cl)c1 [2,2',5-trichlorobiphenyl]",Henry solubility constant Hcp,[8],0.049
[CH3][Hg][CH3] [dimethylmercury],Henry solubility constant Hcp,reference: Talmi and Mesmer (1975),0.0013
ClC1=C(Cl)C(Cl)(Cl)C(Cl)=C1Cl [hexachlorocyclopentadiene],Henry solubility constant Hcp,[9],0.0006
same,Henry solubility constant Hcp,reference: Wolfe et al. (1982),0.00037
"C=CC(C)(O)CCC=C(C)C (stereo not drawn) [3,7-dimethyl-1,6-octadien-3-ol]",Henry solubility constant Hcp,reference: Copolovici and Niinemets (2007),0.38
same,Henry solubility constant Hcp,reference: Leng et al. (2013),0.2
"CC(=O)C(C)(C)C [3,3-dimethyl-2-butanone]",Henry solubility constant Hcp,reference: Hovorka et al. (2019),0.043
"FC(F)=CCl [2-chloro-1,1-difluoroethene]",Henry solubility constant Hcp,reference: Maaßen (1995),0.00017
same,Henry solubility constant Hcp,reference: Reichl (1995),0.00017
Cc1cccnc1 [3-methylpyridine],Henry solubility constant Hcp,reference: Chaintreau et al. (1995),0.42
"O=C1OCc2c(Cl)c(Cl)c(Cl)c(Cl)c21 [4,5,6,7-tetrachlorophthalide]",Henry solubility constant Hcp,[7],18
CCCCCC(=O)OCC [ethyl hexanoate],Henry solubility constant Hcp,reference: Aprea et al. (2007),0.014
same,Henry solubility constant Hcp,reference: Landy et al. (1995),0.0094
same,Henry solubility constant Hcp,reference: Landy et al. (1996),0.016
C/C=C/C(=O)C1=C(C)C=CCC1(C)C [(E)-β-damascenone],Henry solubility constant Hcp,reference: Wieland et al. (2015),0.32
"CNCCCN [N-methyl-1,3-propanediamine]",Henry solubility constant Hcp,reference: Kim et al. (2008),2100
same,Henry solubility constant Hcp,reference: Nguyen (2013),1400
ClC1=C(Cl)[C@]2(Cl)[C@@H]3[C@@H](Cl)[C@@H](Cl)C[C@@H]3[C@@]1(Cl)C2(Cl)Cl [cis-chlordane],Henry solubility constant Hcp,reference: Jantunen and Bidleman (2006),0.037
O=C1CCCC1 [cyclopentanone],Henry solubility constant Hcp,reference: Hawthorne et al. (1985),0.82
"CC(Cl)CCl (stereo not drawn) [1,2-dichloropropane]",Henry solubility constant Hcp,reference: Bissonette et al. (1990),0.003
same,Henry solubility constant Hcp,reference: Bobadilla et al. (2003),0.0042
same,Henry solubility constant Hcp,[9],0.0035
CCCNCCC [dipropylamine],Henry solubility constant Hcp,[10],0.19
same,Henry solubility constant Hcp,reference: Leng et al. (2015a),0.12
CC(=O)N1CCCC1 [N-acetylpyrrolidine],Henry solubility constant Hcp,reference: Gibbs et al. (1991),6200
CCCCC(CC)CO (stereo not drawn) [2-ethyl-1-hexanol],Henry solubility constant Hcp,reference: Wu et al. (2022a),0.15
ClC(Cl)(Cl)C(Cl)(Cl)Cl [hexachloroethane],Henry solubility constant Hcp,reference: Munz and Roberts (1986),0.0034
same,Henry solubility constant Hcp,reference: Munz and Roberts (1987),0.0025
same,Henry solubility constant Hcp,[9],0.001
"Cc1ccc(C)c(O)c1 [1-hydroxy-2,5-dimethylbenzene]",Henry solubility constant Hcp,[1],7.5
C1=CCCCC1 [cyclohexene],Henry solubility constant Hcp,reference: Bakierowska and Trzeszczyński (2003),0.00033
same,Henry solubility constant Hcp,reference: Nielsen et al. (1994),0.00025
CCCCCCCCCCO [1-decanol],Henry solubility constant Hcp,reference: Lei et al. (2007),0.065
same,Henry solubility constant Hcp,reference: Shunthirasingham et al. (2013),0.076
CCCCc1ccccc1 [butylbenzene],Henry solubility constant Hcp,[11],0.00062
CNC [dimethylamine],Henry solubility constant Hcp,[10],0.56
CCC(C)C=O (stereo not drawn) [2-methylbutanal],Henry solubility constant Hcp,reference: Pollien et al. (2003),0.023
CC(N)CO (stereo not drawn) [2-amino-1-propanol],Henry solubility constant Hcp,reference: Nguyen (2013),1300
CCCCC [pentane],Henry solubility constant Hcp,reference: Jou and Mather (2000),8.7e-06
same,Henry solubility constant Hcp,[4],8.2e-06
"C=CCSCC=C [3,3'-thiobis-1-propene]",Henry solubility constant Hcp,reference: Lindinger et al. (1998),0.0041
"COC(=O)CC(=O)OC [propanedioic acid, dimethyl ester]",Henry solubility constant Hcp,reference: Katrib et al. (2003),38
"CN(Cl)Cl [N,N-dichloromethylamine]",Henry solubility constant Hcp,reference: Cimetiere and de Laat (2009),0.0033
"Brc1ccc(Oc2ccc(Br)cc2Br)cc1 [2,4,4'-tribromodiphenyl ether]",Henry solubility constant Hcp,[6],0.18
same,Henry solubility constant Hcp,[12],0.12
same,Henry solubility constant Hcp,reference: Long et al. (2017),0.16
"Cc1cnc(C)cn1 [2,5-dimethylpyrazine]",Henry solubility constant Hcp,reference: Druaux et al. (1998),5.5
same,Henry solubility constant Hcp,reference: Marin et al. (1999),7.1
Cc1cccc2ccccc12 [1-methylnaphthalene],Henry solubility constant Hcp,reference: Schwarz and Wasik (1977),0.028
"Clc1cc(Cl)c2c(c1Cl)Oc1ccccc1O2 [1,2,4-trichlorodibenzo-p-dioxin]",Henry solubility constant Hcp,reference: Santl et al. (1994),0.27
CC(C)C(C)O (stereo not drawn) [3-methyl-2-butanol],Henry solubility constant Hcp,reference: Fenclová et al. (2010),0.54
CCN(CC)C(=O)SCc1ccc(Cl)cc1 [S-(4-chlorobenzyl) diethylthiocarbamate],Henry solubility constant Hcp,[7],4.9
"Brc1ccc(Oc2ccc(Br)cc2)cc1 [4,4'-dibromodiphenyl ether]",Henry solubility constant Hcp,[12],0.073
"Clc1ccc(-c2c(Cl)c(Cl)cc(Cl)c2Cl)c(Cl)c1Cl [2,2',3,3',4,5',6'-heptachlorobiphenyl]",Henry solubility constant Hcp,[8],0.0045
"COCCOC [1,2-dimethoxyethane]",Henry solubility constant Hcp,[13],1.4
C1CCOCC1 [tetrahydropyran],Henry solubility constant Hcp,[13],0.083
"Brc1ccc(Oc2cc(Br)c(Br)cc2Br)c(Br)c1 [2,2',4,4',5-pentabromodiphenyl ether]",Henry solubility constant Hcp,[6],1.5
same,Henry solubility constant Hcp,[12],0.27
same,Henry solubility constant Hcp,reference: Long et al. (2017),1.5
[Hg] [mercury],Henry solubility constant Hcp,reference: Andersson et al. (2008),0.0013
same,Henry solubility constant Hcp,reference: Sanemasa (1975),0.0013
CN1CCCC1=O [N-methyl-2-pyrrolidone],Henry solubility constant Hcp,reference: Bernauer and Dohnal (2009),2100
same,Henry solubility constant Hcp,reference: Kim et al. (2000),3100
"Clc1ccc(-c2cc(Cl)c(Cl)cc2Cl)c(Cl)c1 [2,2',4,4',5-pentachlorobiphenyl]",Henry solubility constant Hcp,[12],0.0088
"C[C@@H]1CCCC[C@@H]1C [cis-1,2-dimethylcyclohexane]",Henry solubility constant Hcp,[5],2.7e-05
C=CCC [1-butene],Henry solubility constant Hcp,reference: Serra and Palavra (2003),4.5e-05
CCCc1ccccc1 [propylbenzene],Henry solubility constant Hcp,[11],0.00086
Cc1ccccc1O [1-hydroxy-2-methylbenzene],Henry solubility constant Hcp,[1],5.6
same,Henry solubility constant Hcp,[2],4.2
same,Henry solubility constant Hcp,reference: Harrison et al. (2002),11
same,Henry solubility constant Hcp,reference: Parsons et al. (1972),8.2
CCCCOC=O [butyl methanoate],Henry solubility constant Hcp,reference: Wittig et al. (2001),0.019
